Marks after values point to notes of the source that are not given here.
Legend:
[1] = tested on: Infraspinatus (ISP) steaks; experiment: Consumer panel palatability ratings of steaks; parameters: species or system steers; conditions: for Flavor / Tenderness: ISP, 9-point hedonic scale
Procedure: (§1) Thoracic limbs from 14 steers were chilled on the carcass (controls) or removed within 2 hours post-mortem and pumped to 10% of muscle weight with water, 200 mM or 400 mM sodium citrate solutions. The injections were performed at various sites along the muscle. The control remained on the carcass. Muscle pH and temperature were measured immediately prior to pumping. Experimental and control muscles were chilled at 2° C. for 24 hours. Steaks (2.54 cm thick) were removed after 24 hours from the Infraspinatus, Supraspinatus and Triceps brachii muscles and were either frozen immediately or aged for another 6 days and then evaluated. A consumer panel evaluated palatability juiciness, tenderness, connective tissue amount, and flavor desirability) on Infraspinatus and Triceps brachii steaks using 9-point hedonic scales (1 being very undesirable and 9 being very desirable) for each trait. Warner-Bratzler shear force values were determined on 1.27 cm-diameter cores from steaks that were broiled to an internal temperature of 70° C.

[2] = tested on: Triceps brachii (TBR) steaks; experiment: Consumer panel palatability ratings of steaks; parameters: species or system steers; conditions: for Flavor / Tenderness: TBR, 9-point hedonic scale
Procedure: as §1

[3] = tested on: sternomandibularis beef muscles; experiment: Shear force of pre-rigor injected sectioned muscle; conditions: 200 mM (glucose, calcium chloride 300 mM)
Procedure: Pre-rigor beef muscle was sectioned into 100 g. samples at approximately 3 hours post-mortem. The pieces were injected with 10 mL of treatment solution followed by marination in the solution for 24 hours at 2° C. before testing pH and recording visual color of the muscle sections. For evaluation of shear force, samples were thawed, cooked, sliced (approximately 6 mm by 6 mm) and then cooled before readings were taken. The solutions used for this procedure were as described above for homogenized muscle.
(§2) Pre-rigor beef muscle was sectioned and the sections were injected at approximately 1 hour post-mortem with a volume of treatment solution equal to 10% of the muscle weight. Objective color measurements were taken on pieces of each muscle section and the pieces were then frozen, powdered and stored at −80° C. for up to 10 days before testing pH and analyzing oxidation-reduction potential. Shear force was evaluated as described immediately above. Solutions used in this procedure were as follows: sodium citrate (200 mM), sodium acetate (200 mM), glucose (300 mM), calcium citrate (200 mM), calcium chloride (300 mM), injection with water, and no injection (control). The calcium citrate solution was prepared as a suspension using 0.25% carrageenan and 200 mM calcium citrate due to its insolubility in water. However, use of calcium citrate can be optimized by increasing solubility by means known in the art.

[4] = tested on: sternomandibularis beef muscles; experiment: pH of pre-rigor injected sectioned muscle; conditions: injection 10% of muscle weight, 200 mM (glucose, calcium chloride 300 mM)
Procedure: as §2

[5] = tested on: triceps brachii beef muscles; experiment: Muscle pH, pre-rigor injection of whole muscle; conditions: 200 mM, calcium chloride 300 mM
Procedure: (§3) Experiment were conducted to test the effects of pre-rigor injection of several compounds. Effects of these compounds on pH, color, tenderness and other related traits of low-value beef cuts were investigated. Ten steers (22 to 24 mo of age, 515 to 676 kg live weight) were slaughtered according to current industry procedures. Pre-rigor semimembranosus (from the round), triceps brachii and supraspinatus muscles (from the chuck) were excised, after evisceration (approximately 1 hour post-mortem), from both sides of the carcass. Muscle sections were randomly assigned to the treatments: sodium citrate (NaC; 200 mM), sodium fluoride (NaF; 200 mM), sodium acetate (NaA; 200 mM), and calcium chloride (CaCl2; 300 mM). The control samples remained on the carcass at 2° C. for 24 hours to simulate commercial conditions. Following a cooling, control muscles were removed from each carcass (4 replicates), vacuum packaged and transferred to the holding cooler with the other cuts at 2° C. Calcium chloride treatment was included to be compared with the other treatments.
(§4) At 2 hours post-mortem, each muscle was injected with a volume equal to 8% of the muscle weight using a four-needle hand injector. The temperature of solutions were 4° C. Each muscle was individually treated (2% of solution was added to give a total of 10% of muscle weight) and tumbled in a 75-pound capacity tumbler (Röschermatic, Oshabrück, Germany) for 30 min to insure uniform distribution of the solution.
(§5) Samples of each muscle (approximately 100 g) were taken at 0 hour (before injection), 24, and 72 hours after injection for determination of pH, oxidation-reduction potential, glycogen content, R-values, NAD, and NADH. The samples were then immediately frozen in liquid nitrogen and stored at −80° C. until they were powdered and analyzed. Fresh muscle samples (approximately 20 g) were taken at 72 hours after injection and assayed immediately for water holding capacity and sarcomere length.
(§6) Duplicate pre-rigor samples (5 g) were weighed from powdered sample and homogenized (Polytron, Brinkman Instruments, New York, N.Y.) in 50 mL of 5 mM iodoacetic acid, 150 mM potassium chloride (pH 7.0, 24° C.) to stop glycolysis (Ahn et al., 1992). The pH of the suspension was measured with a general purpose electrode (Corning Glass Works, Corning, N.Y.) attached to an Orion Model SA 720 pH meter (Orion Research, Inc., Boston, Mass.). Post-rigor muscle pH was determined by homogenizing 5 g of sample in 50 mL of deionized water (Winger et al., 1979).

[6] = tested on: semimembranosus beef muscles; experiment: Muscle pH, pre-rigor injection of whole muscle
Procedure: as §3, §4, §5, §6

[7] = tested on: supraspinatus beef muscles; experiment: Muscle pH, pre-rigor injection of whole muscle
Procedure: as §3, §4, §5, §6

[8] = 400 mM, Infraspinatus, day 1 and day 7, P<0.10, data not shown
[9] = 400 mM, Triceps brachii, day 1 and day 7, P<0.10, data not shown
[10] = 24 h, 200 mM, calcium chloride 300 mM
[11] = 72 h, 200 mM, calcium chloride 300 mM

**Q.** With O=C([O-])CC(O)(CC(=O)[O-])C(=O)[O-].[Na+].[Na+].[Na+] [Sodium citrate, sodium citrate] as the molecule, how does the Flavor ([1]; 200 mM, d1) read?
**A.** Its Flavor is 5.33^a,b.

**Q.** What about the Tenderness ([1]; 200 mM, d1) of the same molecule?
**A.** The Tenderness was 5.36^a,b.

**Q.** And the Flavor ([1]; 200 mM, d7)?
**A.** Its Flavor is 5.35^a.

**Q.** And the Tenderness ([1]; 200 mM, d7)?
**A.** The Tenderness was 5.68^a.

**Q.** And the Flavor ([1]; 400 mM, d1)?
**A.** The Flavor was 5.49^a*.

**Q.** What about the Tenderness ([1]; 400 mM, d1) of the same molecule?
**A.** The Tenderness was 5.67^a.

**Q.** What about the Flavor ([1]; 400 mM, d7) of the same molecule?
**A.** Its Flavor is 5.41^a.

**Q.** What about the Tenderness ([1]; 400 mM, d7) of the same molecule?
**A.** The Tenderness was 5.90^a.

**Q.** And the “Connective tissue amount rating vs controls” value [1, 8]?
**A.** The value was “more desirable”.

**Q.** And the “Juiciness rating vs controls” value [1, 8]?
**A.** Its value is “more desirable”.

**Q.** And the Flavor ([2]; 200 mM, d1)?
**A.** Its Flavor is 5.23^a.

**Q.** What about the Tenderness ([2]; 200 mM, d1) of the same molecule?
**A.** Its Tenderness is 4.81^b.

**Q.** What about the Flavor ([2]; 200 mM, d7) of the same molecule?
**A.** Its Flavor is 4.87^a.

**Q.** What about the Flavor ([2]; 400 mM, d1) of the same molecule?
**A.** Its Flavor is 5.30^a*.

**Q.** And the Tenderness ([2]; 400 mM, d1)?
**A.** The Tenderness was 5.25^a.

**Q.** What about the Flavor ([2]; 400 mM, d7) of the same molecule?
**A.** The Flavor was 5.18^a.

**Q.** And the Tenderness ([2]; 400 mM, d7)?
**A.** The Tenderness was 5.48^a.

**Q.** And the “Connective tissue amount rating vs controls” value [2, 9]?
**A.** The value was “more desirable”.

**Q.** What about the “Juiciness rating vs controls” value [2, 9] of the same molecule?
**A.** The value was “more desirable”.

**Q.** What about the “Shear force, kg (72 h)” value [3] of the same molecule?
**A.** Its value is 11.09^ab kg.

**Q.** What about the “PH (0 h)” value ([4]; 0 h) of the same molecule?
**A.** The value was 6.86.

**Q.** And the “pH, 72 h” value ([4]; 72 h)?
**A.** Its value is 5.77^bc.

**Q.** And the “pH, 0 h” value ([5]; 0 h (before injection))?
**A.** The value was 6.71.

**Q.** What about the “pH, 24 h” value ([5]; 24 h after injection) of the same molecule?
**A.** The value was 5.97^a.

**Q.** What about the “pH, 72 h” value ([5]; 72 h after injection) of the same molecule?
**A.** Its value is 5.72^b.

**Q.** What about the “pH, 0 h” value ([6]; 0 h (before injection)) of the same molecule?
**A.** Its value is 6.68.

**Q.** What about the “pH, 24 h” value [6, 10] of the same molecule?
**A.** Its value is 5.97^a.

**Q.** What about the “pH, 72 h” value [6, 11] of the same molecule?
**A.** The value was 5.78^b.

**Q.** What about the “pH, 0 h” value ([7]; 0 h (before injection)) of the same molecule?
**A.** Its value is 6.73.

**Q.** What about the “pH, 24 h” value [7, 10] of the same molecule?
**A.** Its value is 6.04^b.

**Q.** What about the “pH, 72 h” value [7, 11] of the same molecule?
**A.** Its value is 5.86^b.

Reference: patent US20020054941A1, “Methods and compositions to enhance tenderness and value of meat” (The Board of Regents of the University of Nebraska, priority 2000, published 2002)
